Like-named read-outs stand apart in the source and are kept apart here.
Key:
[1] = tested on: RPMI 8226.x1 multiple myeloma xenografts; test: RPMI 8226.x1 multiple myeloma xenograft; format: in vivo, SCID Beige mice
Procedure: (§1) The efficacy of the combinations of the invention may be measured in vivo by implanting allografts or xenografts of cancer cells in rodents and treating the tumor-bearing animals with the combinations. Variable results are to be expected depending on the cell line, the presence or absence of certain mutations in the tumor cells, the sequence of administration of a formula I compound and chemotherapeutic agent, dosing regimen, and other factors. Subject mice were treated with drug(s) or control (Vehicle) and monitored over several weeks or more to measure the time to tumor doubling, log cell kill, and tumor inhibition.
Dosing of all cohorts commenced on Day 0 when the mean tumor volume of all cohorts was between about 100 to 200 cubic millimeters.

BaF3 PIM1 cells = BaF3 PIM1 cells (Homo sapiens, UniProt P11309); test: BaF3 PIM1 cell proliferation (Cell Titer Glo); format: cell-based
[2] = tested on: bone marrow aspirate samples from multiple myeloma patients; test: Primary cancer cell isolates from bone marrow aspirates, apoptosis; format: cell-based, human; details: 0.3 or 1.0 micromolar; two of four cases
Procedure: Shown in FIG. 2 are a summary of Combination Index values for Compound 3 in combination with different agents. The values shown were calculated at the ED50 of the dose response curves which were similar in nature to those exemplified in FIG. 1. Each dot in the plot represents the test results obtained with a different multiple myeloma cell line with a different combination of test agents, including Compound 3 plus a second agent as labeled on the abscissa. The horizontal line on the plot itself indicates the mean of all CI values for a given test agent. Combinations of Compound 3 with clinical standard of care chemotherapeutic agents including dexamethasone, lenalidomide, bortezomib, and melphalan produced variable results wherein CI values between about 0.1 and about 1 were obtained, with means generally greater than about 0.5. Compared to these clinically active agents, unexpectedly uniform and unexpectedly potent combination test results were obtained for Compound 3 in combination with Formula A, in which the majority of calculated CI values were less than about 0.2 and the mean across all cancer cell lines tested was about 0.2. In addition to these findings, bone marrow aspirate samples from multiple myeloma patients […] to test Formula A and Compound 3 singly and in combination on these primary cancer cell isolates.

[3] = tested on: prostate cancer cell line PC3; test: Cell Titer Glo proliferation and survival assay, PC3; format: cell-based; details: PC3, FIG. 5
From the text: The results obtained here are representative of a subset of prostate cell lines tested.

[4] = tested on: OPM-2 multiple myeloma xenografts; test: OPM-2 multiple myeloma xenograft; format: in vivo, SCID Beige mice; details: Compound 3 50 mg/kg po qd x21, day 23 vs vehicle
Procedure: as §1
Dosing of all cohorts commenced on Day 0 when the mean tumor volume of all cohorts was between about 100 to 200 cubic millimeters. […] Formula A was tested at as a single agent at a single dose level of 75 mg/kg for which a similar TGI was obtained at day 23.

[5] = tested on: multiple myeloma cell line KMS11; test: Cell Titer Glo proliferation and survival assay, KMS11 and other multiple myeloma cell lines; format: cell-based; details: Homo sapiens, KMS-11; single agent; ten multiple myeloma cell lines tested; read-out: IC50 against myeloma cell lines, single agent
From the text: The results obtained here are representative of a total of ten multiple myeloma cell lines tested.

EOL-1 = EOL-1 cell assay; format: cell-based; details: Homo sapiens, EOL1; Table 3

Chain of BaF3 PIM1 cells (P11309 whole entry, change not shown): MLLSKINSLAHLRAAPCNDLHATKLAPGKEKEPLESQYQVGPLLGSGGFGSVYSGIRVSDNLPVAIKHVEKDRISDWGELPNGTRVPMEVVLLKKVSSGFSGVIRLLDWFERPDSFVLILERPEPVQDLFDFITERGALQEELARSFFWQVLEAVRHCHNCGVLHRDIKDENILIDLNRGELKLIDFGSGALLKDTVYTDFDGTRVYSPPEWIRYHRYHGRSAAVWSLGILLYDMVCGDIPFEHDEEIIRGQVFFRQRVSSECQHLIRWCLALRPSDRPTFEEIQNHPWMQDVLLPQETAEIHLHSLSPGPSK

GI50 (BaF3 PIM1 cells; Table 3, read-out: BaF3-Pim1): 10 nM | GI50 (BaF3 PIM1 cells; incubated overnight, read-out: Prolif BaF3_PIM1 (IC50)): 13.5 nM | IC50 (EOL-1): 10 nM
Structure (SMILES): Nc1sc(-c2c(F)cccc2F)nc1C(=O)Nc1cnccc1N1CCC[C@H](N)C1 [Example 3, (S)-5-amino-N-(4-(3-aminopiperidin-1-yl)pyridin-3-yl)-2-(2,6-difluorophenyl)thiazole-4-carboxamide]
effect on tumor growth at the lowest dose ([1]; Compound 3 5 mg/kg po qd x21): trend toward accelerated tumor growth, though this trend was not statistically significant | tumor growth inhibition (TGI) ([1]; Compound 3 50 mg/kg po qd x21, day 27 vs vehicle): about 70% | activity on primary cancer cell isolates [2]: only limited single agent activity | single agent activity, PC3 [3]: little activity | tumor growth inhibition (TGI) [4]: about 45% | IC50 [5]: 100 to 500 nM

— patent US8435976B2, “4-substituted pyridin-3-yl-carboxamide compounds and methods of use” (F. Hoffmann-La Roche, priority 2009, dated 2013)
